In PubChem BioAssay AID179 (DTP/NCI, 2004):
Activity calls are given as the source filed them.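 The calls were made as follows: active = compounds giving half or more protection of infected cells from virus-caused growth loss, again on retest; inactive = the rest.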 Where a SMILES comes first, the peptide text is derived from it. [ ]: non-standard residue; d: D form. The star is where a group is joined. Phe(4-NO2) = N[CH](Cc1ccc([N+](=O)[O-])cc1)C(=O)O; Fmoc = O=C(OCC1c2ccccc2-c2ccccc21)*; Cbz = O=C(OCc1ccccc1)*; Boc = CC(C)(C)OC(=O)*

Tested on: CEM cells HIV-1 protection, formazan growth assay
Assay: NCI AIDS Antiviral Assay
Conditions: for IC50: measured here: growth of uninfected CEM cells
Summary of the method: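 Human CEM cells, uninfected and HIV-1-infected, received five drug concentrations, and growth was read by soluble formazan assay. Compounds giving at least 50% protection were retested; reproducible 100% protection defined confirmed active.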

For `Cc1nc2ccc(S(=O)(=O)NS(=O)(=O)c3ccc(-c4ccccc4)cc3)cc2c(=O)n1NS(=O)(=O)c1ccc(-c2ccccc2)cc1`, the EC50 was greater than 200 µM and the IC50 was 170 µM.

Work on `CCOC(=O)CCC(NC(=O)OCc1ccccc1)C(=O)NC(CCC(=O)OCC)C(=O)NC(CCC(=O)OCC)C(=O)NC(CCC(=O)OCC)C(=O)NC(CCC(=O)OCC)C(=O)NC(Cc1ccc([N+](=O)[O-])cc1)C(=O)NC(CCC(=O)OCC)C(=O)NC(CCC(=O)OCC)C(=O)NC(CCC(=O)OCC)C(=O)NC(CCC(=O)OCC)C(=O)NC(CCC(=O)OCC)C(=O)OCC` (centres undefined) (Cbz-E(OEt)E(OEt)E(OEt)E(OEt)E(OEt)[Phe(4-NO2)]E(OEt)E(OEt)E(OEt)E(OEt)E(OEt)-OEt; configuration not given here) yielded an EC50 greater than 50.1 µM and an IC50 greater than 50.1 µM.

Work on `S=c1nc2[nH]c3ccc(Br)cc3c2n[nH]1` yielded an EC50 greater than 200 µM and an IC50 of 27.5 µM.

In the case of `CN1C(=O)CCC2[C@@H]3CC=C4C[C@@H](O)CC[C@]4(C)C3CC[C@@]21C` (some centres undefined), the outcome is reported as “inactive”.

With `O=C(/C=C\c1ccc(Cl)c(Cl)c1)c1cccs1` the EC50 was greater than 200 µM and the IC50 was 10.2 µM.

Molecule `COC(=O)CC1(C(=O)OC)Nc2cc(Cl)c(Cl)cc2S(=O)(=O)N1O` (centres undefined) has an EC50 of 69.2 µM and an IC50 of 91.2 µM.

`COCn1c(=O)n(C)c(=O)c2c1nc1c(c(=O)n(C)c(=O)n1COC)[n+]2[O-]` showed an EC50 greater than 200 µM and an IC50 of 5.25 µM.

Work on `CC(C)NCC(O)COc1cccc2ccccc12` (centres undefined) yielded an EC50 greater than 200 µM and an IC50 of 120 µM.

Work on `COc1ccc(C2=C(OC(C)=O)c3cccn3-c3ccccc3S2)cc1` yielded an EC50 greater than 200 µM and an IC50 of 1.32 µM.

Molecule `CCOP(=O)(OCC)/C(C#N)=C/c1ccc(-c2cc(C(F)(F)F)cc(C(F)(F)F)c2)o1` has an EC50 greater than 200 µM and an IC50 of 11.7 µM.

`Cc1ccc2ccc3c(=O)cc(C)[nH]c3c2n1` gave an EC50 of 9.77 µM and an IC50 of 32.4 µM.

For `O=[N+]([O-])c1ccc(Cl)cc1C1SCc2nc3ccccc3n21` (centres undefined), the outcome was “inactive”.

For `CCCCCC=C(c1cc(Cl)c(OC)c(-c2nc(C)no2)c1)c1cc(Cl)c(OC)c(-c2nc(C)no2)c1`, the EC50 was greater than 200 µM and the IC50 was 10.2 µM.

Work on `O=C(Cc1ccccc1CCO)NCCc1ccccc1` yielded an EC50 greater than 200 µM and an IC50 greater than 200 µM.

`CON(C)c1nc(N)c(C#N)c(C#N)c1C#N` gave an EC50 greater than 200 µM and an IC50 of 35.5 µM.

Work on `Cc1ccc([N+](=O)[O-])cc1/C(C#N)=C/c1ccccc1` yielded an EC50 greater than 200 µM and an IC50 of 33.1 µM.

In the case of `O=C(NN1C(=O)C(Cl)C1c1c(O)ccc2ccccc12)c1ccccc1O` (centres undefined), the EC50 is reported as greater than 67.6 µM and the IC50 is reported as greater than 67.6 µM.

`CSC(=N/N=C(\C)c1ccc(S(=O)(=O)N(C)c2ccccc2)cc1)SC` showed an EC50 greater than 200 µM and an IC50 of 14.8 µM.

For `CC(C)(C)OC(=O)NCCCCC(NC(=O)OCC1c2ccccc2-c2ccccc21)C(=O)N1CCCC1C(=O)NCC(N)=O` (stereo not drawn) (Fmoc-Lys(Boc)-Pro-Gly-NH2; configuration not given here), the EC50 was 69.2 µM and the IC50 was 91.2 µM.

`Nc1ccc(-c2cc(C(=O)Nc3nccs3)[nH]c(=S)n2)cc1` was tested, and the EC50 was greater than 759 µM and the IC50 was 407 µM.

With `CSCCCNC(=O)c1csc(-c2csc(CCN)n2)n1` the EC50 was greater than 661 µM and the IC50 was 85.1 µM.

Molecule `COc1cc(C(=O)N(C(=O)N2CCCCC2)c2ccccc2)cc(OC)c1OC` has an EC50 greater than 200 µM and an IC50 greater than 200 µM.

Work on `COc1ccc(-c2cn3c([nH]c(=O)c4cc(Br)ccc43)c2C#N)cc1` yielded an EC50 greater than 200 µM and an IC50 of 182 µM.

In the case of `CN(C)CCCNC(=O)c1cc(NC(=O)c2cc(NC(=O)c3cc(NC(=O)c4ccnc(C(=O)Nc5cc(C(=O)Nc6cc(C(=O)Nc7cc(C(=O)NCCCN(C)C)n(C)c7)n(C)c6)n(C)c5)c4)cn3C)cn2C)cn1C`, the EC50 is reported as greater than 100 µM and the IC50 is reported as greater than 100 µM.

`COc1ccc(-n2c(SC(CN3CCOCC3)CN3CCCC3=O)nc3ccccc3c2=O)cc1` (centres undefined) was tested, and the EC50 was greater than 200 µM and the IC50 was 56.2 µM.

`CCOC(=O)C1=c2[nH]c3cccc4cccc(c43)n2C(=O)CC1c1ccccc1` (centres undefined) was tested, and the EC50 was greater than 100 µM and the IC50 was 75.9 µM.

In the case of `CCCCCCCCCCCCCCCCNC(=O)/C(=C\c1ccccc1O)NC(=O)c1ccccc1`, the EC50 is reported as greater than 200 µM and the IC50 is reported as greater than 200 µM.

`C[N+](C)(CCCCCC[N+](C)(C)C1c2ccccc2-c2ccccc21)C1c2ccccc2-c2ccccc21` was tested, and the EC50 was greater than 200 µM and the IC50 was 182 µM.

`C#C/C=C\CCCC/C=C\C#CC#CCCCC#CC#C[C@H](COS(=O)(=O)O)OS(=O)(=O)O` showed an EC50 of 30.9 µM and an IC50 greater than 200 µM.

In the case of `Cn1c(=O)sc2cc(C(=S)N3CCN(c4ccccc4)CC3)ccc21`, the EC50 is reported as 87.1 µM and the IC50 is reported as 107 µM.

`CCOC(=O)c1cnc2c(ccc3ncccc32)c1OCC` was tested, and the EC50 was greater than 120 µM and the IC50 was 72.4 µM.

With `O=C1c2ccccc2C(=O)c2c1ccc1c3ccccc3n(Cc3ccccc3)c21` the outcome was “inactive”.

Molecule `Cc1cccc(C)c1C1(Cl)C(=O)c2ccccc2C1=O` has an EC50 greater than 200 µM and an IC50 of 13.5 µM.

`COc1cc(C2=C(C)[C@@H]3CN(CC=C3c3ccc(Cl)cc3)C2)c(S(=O)(=O)O)cc1OC` was tested, and the outcome was “inactive”.

For `COC(=O)c1ccccc1N(C(=O)c1ccccc1)c1ccccc1C`, the outcome was “inactive”.

For `CC1=Nc2ccccc2S/C1=C(/C)NNS(=O)(=O)c1ccc(C)cc1`, the EC50 was greater than 53.7 µM and the IC50 was greater than 53.7 µM.

For `CC(=O)Nc1ccc(/C=C2\SC(=S)N(/C=C(\C(C)=O)C(N)=O)C2=O)cc1`, the EC50 was greater than 200 µM and the IC50 was 72.4 µM.

`OCCC(N1CCOCC1)C(O)(c1ccccc1)c1ccccc1` (centres undefined) showed an EC50 greater than 200 µM and an IC50 greater than 200 µM.

`CC1CCCN(CC(O)CN2CCN(CC(O)CN3CCCC(C)C3)C(C)C2)C1` (centres undefined) was tested, and the EC50 was greater than 316 µM and the IC50 was greater than 316 µM.

With `CN1CCCC(CC2c3ccccc3Sc3ccccc32)C1` (centres undefined) the EC50 was greater than 200 µM and the IC50 was 12.3 µM.

Work on `CN1C(=O)N(C)C(N2CCCC2)c2c1nc1ccccn1c2=O` (centres undefined) yielded an EC50 greater than 219 µM and an IC50 of 66.1 µM.

In the case of `OC(c1ccccc1)(c1cccnc1)C(O)(c1ccccc1)c1cccnc1` (centres undefined), the EC50 is reported as greater than 200 µM and the IC50 is reported as greater than 200 µM.
